Experimental data taken from patent publication US9642874B2, “Compositions of selenoorganic compounds and methods of use thereof” (Alltech, Inc., priority 2014, dated 2017).

Tests used:
[1] = test system: Foxo4; test: Western blot of Foxo4 / pFoxo4T28 in AML-12 cells; format: cell-based, mouse; details: individual compound, 150 ppb, serum-containing media, 6 hours and 24 hours
Method: (§1) For the studies of protein expression, AML-12 cells were amplified in ITS, Dex and FBS-containing DMEM/F12 media, and cultured on 6-well (3.33×10^5 cells/well) plates in 10% FBS ITS-free DMEM/F12 media with or without Dex overnight. These cells were treated with control (water) or various compounds in either serum containing (10% FBS ITS-free DMEM/F12 media supplemented with Dex) or serum-free (ITS/Dex-free DMEM/F12 media) for 6 hours and 24 hours. In addition, human neuroblast IMR-32 cells were cultured in 10% FBS EMEM media and then treated with control (water), selenium compounds and their sulfur analogs in the same serum-containing media for 6 hours and 24 hours.
(§2) AML-12 liver cells or IMR-32 neuronal cells were seeded on 6-well plates, and then treated with vehicle and various compounds for 6 hours and 24 hours, as described herein. […] Protein levels in the supernatant of these cell lysates were determined using the Pierce Micro-BCA protein assay kit (Thermo Scientific-Piece Biotechnology, Rockford, Ill.) according to the manufacturer's protocol. […]
(§3) All primary antibodies except Actb (Li-COR, Lincoln, Nebr.), Elf2bε and pElf2bε (Abcam, Cambridge, Mass.) were purchased from Cell Signaling Inc. Positive signals on the membrane blots were detected using the Amersham's enhanced chemiluminescence Western Blotting Prime Detection reagents (GE healthcare Lifescience, Pittsburgh, Pa.). Images of luminescence signals on the membrane blots were captured using the LI-COR Odyssey Fc Image system (Lincoln, Nebr.). […] Protein band densities in the Western blots were determined using the Li-COR Image studio software or NIH ImageJ software and then normalized by Actb level in each sample. […]
(§4) To determine if the combination of Compounds CDE can regulate FOXO phosphorylation in the liver, AML-12 cells were treated with control, and 150 ppb of selenium Compounds CDE, and their sulfur analogs, 150 ppb of Compounds HIJ, in serum- and Dex-containing media but without ITS for 6 hours. […] Quantitative data of protein expression in Western blots are presented as mean±SEM of 3 samples. […]

[2] = test system: Foxo3; test: Western blot of Foxo3 / pFoxo3T32 in AML-12 cells; format: cell-based, mouse; details: individual compound, 150 ppb, serum-containing media, 6 hours and 24 hours
Method: as §1, §2, §3, §4

`C[Se]C[C@H]1O[C@@H](n2cnc3c(N)ncnc32)C(O)C1O` (stereo in doubt) [Compound C, 5′-Methylselenoadenosine] was tested, and the pFoxo4T28 protein levels [1] was “No change” and the pFoxo3T32 protein levels [2] was “No change”.

With `Nc1ncnc2c1ncn2[C@@H]1O[C@H](C[Se]CC[C@@H](N)C(=O)O)C(O)C1O` (stereo partly drawn) [Compound D, 5′-Selenoadenosyl homocysteine] the pFoxo4T28 protein levels [1] was “No change” and the pFoxo3T32 protein levels [2] was “No change”.

With `C[Se]C[C@H](NC(=O)CC[C@H](N)C(=O)O)C(=O)O` [Compound E, γ-L-glutamyl-Se-methyl-L-selenocysteine] the pFoxo4T28 protein levels [1] was “No change” and the pFoxo3T32 protein levels [2] was “No change”.
